Data as given in ChEMBL document CHEMBL1641597, “An efficient one-pot synthesis of benzothiazolo-4β-anilino-podophyllotoxin congeners: DNA topoisomerase-II inhibition and anticancer activity” (Bioorg Med Chem Lett, 2011).
Where a name gives a salt, the structure may show the parent alone. Active and inactive are the calls of the source. The rule behind the calls is not given here.

Columns and labels:
[1] = target: DNA topoisomerase 2-alpha (Rattus norvegicus) (UniProt P41516); experiment: Inhibition of rat brain topoisomerase 2 assessed as relaxation of supercoiled pBR322 DNA
Sequence of DNA topoisomerase 2-alpha (Rattus norvegicus) (P41516 whole entry): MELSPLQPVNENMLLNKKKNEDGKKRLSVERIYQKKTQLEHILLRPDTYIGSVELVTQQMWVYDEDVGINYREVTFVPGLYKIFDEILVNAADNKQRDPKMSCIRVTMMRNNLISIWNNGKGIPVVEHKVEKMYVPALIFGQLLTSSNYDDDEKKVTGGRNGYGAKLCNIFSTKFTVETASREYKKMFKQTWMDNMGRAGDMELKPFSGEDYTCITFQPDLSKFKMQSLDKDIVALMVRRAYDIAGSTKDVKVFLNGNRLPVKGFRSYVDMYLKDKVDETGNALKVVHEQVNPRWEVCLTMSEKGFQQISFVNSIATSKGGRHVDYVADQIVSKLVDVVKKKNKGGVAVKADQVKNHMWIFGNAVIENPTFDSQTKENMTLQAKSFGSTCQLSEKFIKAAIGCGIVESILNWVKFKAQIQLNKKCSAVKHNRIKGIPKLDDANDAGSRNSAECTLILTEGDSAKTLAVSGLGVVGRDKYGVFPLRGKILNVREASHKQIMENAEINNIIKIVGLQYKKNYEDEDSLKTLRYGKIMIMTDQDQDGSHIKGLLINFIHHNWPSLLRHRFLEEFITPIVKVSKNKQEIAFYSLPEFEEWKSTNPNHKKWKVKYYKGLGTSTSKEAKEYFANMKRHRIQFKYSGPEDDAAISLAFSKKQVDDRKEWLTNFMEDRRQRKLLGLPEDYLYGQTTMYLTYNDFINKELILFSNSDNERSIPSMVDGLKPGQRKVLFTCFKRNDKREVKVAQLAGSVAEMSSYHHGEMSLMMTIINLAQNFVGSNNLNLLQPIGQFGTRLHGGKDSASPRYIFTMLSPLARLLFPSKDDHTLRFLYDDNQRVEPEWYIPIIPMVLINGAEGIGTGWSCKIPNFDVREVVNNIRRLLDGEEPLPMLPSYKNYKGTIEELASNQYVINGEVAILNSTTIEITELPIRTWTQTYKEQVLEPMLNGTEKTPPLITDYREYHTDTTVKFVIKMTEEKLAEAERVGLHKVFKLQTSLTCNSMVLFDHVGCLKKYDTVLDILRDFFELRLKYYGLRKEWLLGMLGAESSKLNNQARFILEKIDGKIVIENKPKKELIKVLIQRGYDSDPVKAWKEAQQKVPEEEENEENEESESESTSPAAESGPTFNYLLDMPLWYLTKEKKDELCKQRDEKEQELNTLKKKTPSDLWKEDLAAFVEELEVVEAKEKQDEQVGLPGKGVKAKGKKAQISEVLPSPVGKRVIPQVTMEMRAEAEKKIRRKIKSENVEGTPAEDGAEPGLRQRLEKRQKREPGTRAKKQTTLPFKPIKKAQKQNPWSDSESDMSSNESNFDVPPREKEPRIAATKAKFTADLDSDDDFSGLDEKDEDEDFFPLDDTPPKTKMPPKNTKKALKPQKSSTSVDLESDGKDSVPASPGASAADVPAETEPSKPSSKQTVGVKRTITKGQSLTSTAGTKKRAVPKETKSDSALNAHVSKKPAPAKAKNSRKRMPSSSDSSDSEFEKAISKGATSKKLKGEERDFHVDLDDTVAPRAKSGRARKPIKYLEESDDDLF

COLO 205 = experiment: Cytotoxicity against human COLO205 assessed as inhibition of cell growth; type: functional, cell-based
[2] = Cytotoxicity against human DWD assessed as inhibition of cell growth; type: functional
HOP-62 = experiment: Cytotoxicity against human HOP62 assessed as inhibition of cell growth; type: functional, cell-based
HT-1080 = experiment: Cytotoxicity against human HT1080 assessed as inhibition of cell growth; type: functional, cell-based

| inhibition [1] | Structure (SMILES) | IC50 (COLO 205) [µM] | IC50 [2] [µM] | IC50 (HOP-62) [µM] | IC50 (HT-1080) [µM] |
| --- | --- | --- | --- | --- | --- |
| Active | COc1ccc2nc(-c3ccc(N[C@@H]4c5cc6c(cc5[C@@H](c5cc(OC)c(O)c(OC)c5)[C@H]5C(=O)OC[C@@H]54)OCO6)cc3)sc2c1 |  |  |  |  |
|  | COc1cc([C@@H]2c3cc4c(cc3[C@@H](Nc3ccc(-c5nc6c(Cl)cccc6s5)cc3)[C@H]3COC(=O)[C@H]23)OCO4)cc(OC)c1O | 8.3 | 9.1 | 10.1 | > 80 |
| Active | COc1cc([C@@H]2c3cc4c(cc3[C@@H](Nc3ccc(-c5nc6ccccc6s5)cc3)[C@H]3COC(=O)[C@H]23)OCO4)cc(OC)c1OC | 8.1 | 22 | > 80 | 8.2 |
|  | COc1cc([C@@H]2c3cc4c(cc3[C@@H](Nc3ccc(-c5nc6c(Cl)cccc6s5)cc3)[C@H]3COC(=O)[C@H]23)OCO4)cc(OC)c1OC | 7.1 | 7.3 | 60.3 | 9.1 |
| Active | COc1cc([C@@H]2c3cc4c(cc3[C@@H](Nc3ccc(-c5nc6ccccc6s5)cc3)[C@H]3COC(=O)[C@H]23)OCO4)cc(OC)c1O | 2.7 | 2.3 | 30.1 | 9.7 |
|  | COc1ccc2nc(-c3ccc(N[C@@H]4c5cc6c(cc5[C@@H](c5cc(OC)c(OC)c(OC)c5)[C@H]5C(=O)OC[C@@H]54)OCO6)cc3)sc2c1 | 7 | 5.2 | 15.2 | 9.5 |
| Active | COc1cc([C@@H]2c3cc4c(cc3[C@@H](Nc3ccc(-c5nc6ccccc6s5)cc3Br)[C@H]3COC(=O)[C@H]23)OCO4)cc(OC)c1O |  |  |  |  |
|  | COc1cc([C@@H]2c3cc4c(cc3[C@@H](Nc3ccc(-c5nc6ccccc6s5)c(Cl)c3)[C@H]3COC(=O)[C@H]23)OCO4)cc(OC)c1O | 8.3 | 6.5 | 8.6 | > 80 |
|  | COc1cccc2c1C(=O)c1c(O)c3c(c(O)c1C2=O)C[C@@](O)(C(=O)CO)C[C@@H]3O[C@H]1C[C@H](N)[C@H](O)[C@H](C)O1 [DOXORUBICIN HYDROCHLORIDE] | 5.1 | 2.8 | 5.4 | 4.7 |
|  | COc1cc([C@@H]2c3cc4c(cc3[C@H](O)[C@H]3COC(=O)[C@H]23)OCO4)cc(OC)c1OC [PODOFILOX] | 5 | 6.1 | 13.1 | 8.1 |
